# Measurements taken from paper PMC10298530, “Synthesis and Anticancer Activity of A-Ring-Modified Derivatives of Dihydrobetulin” (International Journal of Molecular Sciences, 2023).
# “And” between values parts separate entries of the source, which are not always exact repeats. Equal values may be shown once. Read-outs that look alike come from different tables or passages of the source.
# How the values were obtained:
# [1] = tested on: human cancer cell lines; test: MTT assay, panel of cancer cell lines; conditions: for IC50: Homo sapiens
# Procedure: In this study, the human embryonic kidney cell line HEK293 was used as the non-cancerous cell line.
# To investigate the cytotoxic activity of the compounds under study, the MTT colorimetric assay [45] was performed. […] After 72 h, 20 μL of 5 mg/mL solution of MTT (PanEco, Moscow, Russia), in sterile phosphate-buffered saline (PBS; PanEco, Moscow, Russia), was added to each well and further incubated for 4 h. Then, the medium with the compounds was removed, and the formed formazan crystals were dissolved in 100 μL of DMSO. […] The IC50 values were determined from dose-dependent curves, using Prism 6.0 (GraphPad Software, Boston, MA, USA).
# [2] = tested on: HBL-100/Dox; test: MTT cell viability assay, HBL-100/Dox; format: cell-based, human
# Procedure: The cells were cultured in a humidified CO2 incubator (model 460-CE; Thermo Fisher Scientific, Waltham, MA, USA) at +37 °C and 5% CO2.
# The percentage of the viable cells was calculated according to the following equation: cell viability (%) = 100 × (mean absorbance in the treatment group/mean absorbance in the control group). The results were expressed pictorially using Prism 6.0 (GraphPad Software, Boston, MA, USA).
# [3] = tested on: HBL-100/Dox cells; test: Combined action of compounds, MTT assay on HBL-100/Dox cells; format: cell-based, human
# Description: The results were expressed pictorially using Prism 6.0 (GraphPad Software, Boston, MA, USA).
# [4] = tested on: Active Caspase-3 in HBL-100 cells; test: Flow cytometric analysis of active caspase-3, HBL-100; format: cell-based, human; conditions: 24 h
# Procedure: The cells were detached with accutase (HiMedia Laboratories, Maharashtra, India) and then fixed with 70% ice cold ethanol followed by overnight incubation at 4 °C. The cells were washed twice with PBS, permeabilized using 0.1% Triton X-100 in PBS solution, and subsequently stained with 5 μL of the BD Horizon™ BV605 Rabbit Anti-Active Caspase-3 antibody (BD Biosciences, Franklin Lakes, NJ, USA). The cells were then washed, resuspended in PBS, and analyzed using a CytoFlex S flow cytometer (Beckman Coulter, Brea, CA, USA). Cell fluorescence was evaluated on a CytoFlex S flow cytometer (Beckman Coulter, Brea, CA, USA). The results were analyzed using FlowJo software (ver. X 10.0.7r2, FlowJo Software, San Jose, CA, USA) and represented as geometric mean fluorescence intensity (gMFI).
# [5] = tested on: HCT116; test: MTT cell viability assay, HCT116; format: cell-based, human; conditions: for IC50: Homo sapiens, HCT-116
# Description: Blokhin National Medical Research Center of Oncology (the Ministry of Health of the Russian Federation, Moscow).
# [6] = tested on: HBL-100/Dox cells; test: ROS by H2DCFDA fluorescent staining, HBL-100/Dox; format: cell-based, human; conditions: MK 1.8 μM, 4 h
# Procedure: The DNA marker, termed Hoechst 33342 Ready Flow Reagent, was used as a stock solution (Invitrogen, ThermoFisher Scientific, USA). The mitochondrial marker, LumiTracker Mito TMRE (tetramethylrhodamine, ethyl ester; Lumiprobe, Moscow, Russia), was dissolved in DMSO as 1.0 mM stock solution. The marker of reactive oxygen species, H2DCFDA (Lumiprobe, Moscow, Russia), was dissolved in DMSO as 100.0 μM stock solution. After incubation, the cells were incubated with FBS-free culture medium containing the dye mixture of Hoechst 33342 (final concentration 1.0 μM) and LumiTracker Mito TMRE (final concentration 1.0 μM), or H2DCFDA dye taken alone (final concentration 1.0 μM), for 30 min at 37 °C in darkness. Fluorescence, at 420 nm (Hoechst 33342), at 510 nm (TMRE), and at 575 nm (H2DCFDA), of the test cultures (including controls) was analyzed immediately using a fluorescence microscope CKX 53 (Olympus, Tokyo, Japan). The TMRE fluorescence intensity was quantified using Fiji (ImageJ).
# [7] = tested on: HBL-100/Dox cells; test: Cell cycle analysis (DAPI, flow cytometry), HBL-100/Dox; format: cell-based, human; conditions: for Cell cycle of HBL-100/Dox, G0/G1 / Cell cycle of HBL-100/Dox, G2/M / Cell cycle of HBL-100/Dox, subG0/G1 / Cell cycle of HBL-100/Dox, S-phase: dose = IC50
# Procedure: The cells were trypsinized and rinsed with the growth medium. Then, the cells were harvested by centrifugation at 500× g for 3 min, and the supernatant was discarded. The cells were washed with PBS (PanEco, Moscow, Russia) twice and centrifuged under similar conditions. The cells were resuspended in 500 μL of PBS, put into centrifuge tubes and fixed by adding 4.5 mL of 70% ethanol dropwise (on ice). The samples were fixed at 4 °C. Overnight, the fixed cells were centrifugally collected (1000× g, 4 °C, 5 min) and washed again with PBS. The cells were finally resuspended in DAPI with 0.1% Triton X-100 in PBS solution (10 μg/mL, Sigma–Aldrich, St. Louis, MO, USA), and stained for 30 min at room temperature in darkness. For each sample, at least 50,000 cells were analyzed using the CytoFlex S flow cytometer (Beckman Coulter, Brea, CA, USA). Cell cycle populations were quantified from DNA histograms with the FlowJo software (ver. X 10.0.7r2, FlowJo Software, San Jose, CA, USA).
compound,measurement,setting,value
"COC(=O)[C@]12CC[C@@H](C(C)C)[C@@H]1[C@H]1CC[C@@H]3[C@@](C)(CCC#N)[C@H](C(=O)C(Br)Br)CC[C@@]3(C)[C@]1(C)CC2 [compound 31, 2-Cyano-24,24-dibromo-4-oxo-3,4-seco-3,23-dinorlupan-28-oic acid methyl ester]",IC50,[1]; read-out: IC50 values (range),0.7 to 7.1 µM
same,IC50,[1]; read-out: cytotoxicity (IC50 range),0.7 to 16.6 µM
same,cytotoxicity in the screening studies,"[1]; MTT screening, Table S1",pronounced cytotoxic effect
same,SI (range),"[1]; against HBL-100/Dox, HBL-100, and RD TE32 cells",6.39–16.43
same,death of the cells,"[2]; HBL-100/Dox, MK at IC50 dose, after 72 h exposure",50%
same,IC50,"[2]; Homo sapiens, HBL-100, 72 h, read-out: IC50 Values (Mean ± SD)",1800 ± 100 nM
same,Selectivity index (SI),[2]; ratio of IC50 values healthy (HEK293) / HBL-100/Dox,6.39
same,"number of living cells, compound vs its combination with verapamil","[3]; 72 h, 30 μM verapamil",remained unchanged
same,potentiation in the effectiveness of Dox,[3]; MK 0.6 μM combined with Dox,no potentiation
same,"gMIF, Active Caspase-3",[4]; dose 2×IC50,11048±278
same,"gMIF, Active Caspase-3",[4]; dose IC50,6755±301
same,IC50,"[5]; HCT116, MTT, 72 h of treatment, read-out: IC50 Values (Mean ± SD)",3.9 ± 0.1 µM
same,IC50,"[5]; Table S1, HCT116, read-out: IC50 (mean ± SD)",3.86 ± 0.08 µM
same,Selectivity index (SI),[5]; ratio of IC50 values healthy (HEK293) / HCT116,2.95
same,"ROS generation, H2DCFDA staining",[6],significantly heightened the ROS generation
same,"Cell cycle of HBL-100/Dox, G0/G1",[7]; 12 h,50.93±0.43%
same,"Cell cycle of HBL-100/Dox, G2/M",[7]; 12 h,18.38±0.34%
same,"Cell cycle of HBL-100/Dox, subG0/G1",[7]; 12 h,4.84 ± 1.48%
same,"Cell cycle of HBL-100/Dox, S-phase","[7]; 12 h, listed as MK",30.69 ± 0.99% and 30.69±0.04%
same,"Cell cycle of HBL-100/Dox, G0/G1",[7]; 13 h,47.82±0.67%
same,"Cell cycle of HBL-100/Dox, G2/M",[7]; 13 h,17.42±0.46%
same,"Cell cycle of HBL-100/Dox, S-phase",[7]; 13 h,34.76±0.20%
same,"Cell cycle of HBL-100/Dox, subG0/G1",[7]; 13 h,4.89±0.48%
same,"Cell cycle of HBL-100/Dox, G0/G1",[7]; 14 h,51.68±1.34%
same,"Cell cycle of HBL-100/Dox, G2/M",[7]; 14 h,14.54±0.25%
same,"Cell cycle of HBL-100/Dox, S-phase",[7]; 14 h,33.78±1.08%
same,"Cell cycle of HBL-100/Dox, subG0/G1",[7]; 14 h,4.87±0.60%
same,"Cell cycle of HBL-100/Dox, G0/G1",[7]; 15 h,52.12±1.18%
same,"Cell cycle of HBL-100/Dox, G2/M",[7]; 15 h,14.52±1.40%
same,"Cell cycle of HBL-100/Dox, S-phase",[7]; 15 h,33.36±2.57%
same,"Cell cycle of HBL-100/Dox, subG0/G1",[7]; 15 h,5.06±0.09%
same,"Cell cycle of HBL-100/Dox, G0/G1",[7]; 16 h,51.84±0.88%
same,"Cell cycle of HBL-100/Dox, G2/M",[7]; 16 h,22.22±1.70%
same,"Cell cycle of HBL-100/Dox, S-phase",[7]; 16 h,25.94±2.58%
same,"Cell cycle of HBL-100/Dox, subG0/G1",[7]; 16 h,6.55±0.11%
same,"Cell cycle of HBL-100/Dox, G0/G1",[7]; 17 h,52.16 ± 1.94%
same,"Cell cycle of HBL-100/Dox, G2/M",[7]; 17 h,19.82±0.60%
same,"Cell cycle of HBL-100/Dox, S-phase",[7]; 17 h,28.02±1.34%
same,"Cell cycle of HBL-100/Dox, subG0/G1",[7]; 17 h,9.08±0.39%
same,"Cell cycle of HBL-100/Dox, G0/G1",[7]; 18 h,57.26±1.18%
same,"Cell cycle of HBL-100/Dox, G2/M",[7]; 18 h,25.55±1.12%
same,"Cell cycle of HBL-100/Dox, S-phase",[7]; 18 h,17.19±2.31%
same,"Cell cycle of HBL-100/Dox, subG0/G1",[7]; 18 h,10.42±0.98%
same,"Cell cycle of HBL-100/Dox, G0/G1",[7]; 24 h,64.14 ± 0.55%
same,"Cell cycle of HBL-100/Dox, S-phase",[7]; 24 h,8.99 ± 0.42%
same,"Cell cycle of HBL-100/Dox, G2/M","[7]; 24 h, listed as MK",26.87 ± 1.13% and 26.87±0.13%
same,"Cell cycle of HBL-100/Dox, subG0/G1","[7]; 24 h, listed as MK",13.47 ± 2.44% and 13.47±0.18%
same,effect on cell cycle progression,"[7]; HBL-100/Dox (resistant) cells, 12-24 h, IC50",blocked or slowed down the cell cycle progression through the G0/G1 phase
